Measurements published in patent publication US12522593B2, “Azacycloalkyl carbonyl cyclic amine compound” (Alivexis, Inc., priority 2022, dated 2026).

Key:
human recombinant CTSC = human recombinant CTSC (Homo sapiens (Human), UniProt P53634); experiment: CTSC inhibition assay (in vitro), fluorescent substrate GF-AFC; format: biochemical; details: 30 μmol/L GF-AFC, pH 5.0, 25° C.
Experimental: 1. CTSC Inhibition Assay (In Vitro)
A test specimen was evaluated by a CTSC inhibition assay using a fluorescent substrate GF-AFC (Gly-Phe-7-Amino-4-trifluoromethylcoumarin, MP Biomedical, 03AFC03325). Since the GF-AFC is converted by CTSC to aminotrifluoromethylcoumarin having a specific fluorescence wavelength and the produced amount is proportional to CTSC activity, quantitative analysis was performed by measuring a fluorescence intensity with a plate reader. CTSC inhibition assay for each compound was performed using a polystyrene-made non-adhesive surface-treated black 384 well plate under the following conditions.
A human recombinant CTSC (R&D systems, 1071-CY) was dissolved in a CTSC active cocktail (20 ng/mL of human recombinant cathepsin L (R&D systems, 952-CY, 25 mmol/L MES/NaOH (pH: 6.0), 5 mmol/L dithiothreitol (DTT)) so as to be 100 ng/mL and incubated at 18° C. for 30 minutes. The solution was diluted with a CTSC assay buffer (50 mmol/L MES/NaOH (pH: 5.0), 50 mmol/L NaCl, 0.001% Triton X-100, mmol/L DTT) so as to be 2 ng/mL in a case of performing CTSC inhibition assay.
The test specimen was dissolved in dimethylsulfoxide (DMSO) at 10 mmol/L to prepare a stock solution. In a case where a solution in which the stock solution was diluted 15-fold with DMSO was used as the maximum evaluation concentration (0.667 mmol/L), 5-fold dilution was repeated in DMSO from the solution to prepare a serially diluted solution. 248.8 μL of the CTSC assay buffer was added to 1.12 μL of the serially diluted sample prepared in the DMSO to prepare a solution of a CTSC inhibition assay compound.
The final composition of the CTSC inhibition assay mixture was 0.66 ng/mL activated CTSC, 50 mmol/L MES/NaOH (pH: 5.0), 50 mmol/L NaCl, 0.001% Triton X-100, 5 mmol/L DTT, 30 μmol/L GF-AFC, and 0.15% DMSO, and the procedure was as follows. That is, 4 μL of the compound solution and 4 μL of the 2 ng/mL activated CTSC solution were mixed with each other in a 384 well plate and incubated at 25° C. for 30 minutes. Thereafter, 4 μL of the GF-AFC solution dissolved in the CTSC assay buffer was added to the mixture so as to be 90 μmol/L. After mixing to be uniform, a fluorescence emission intensity at 505 nm in a case of being excited at 390 nm after incubating at 25° C. for 1 hour was measured with a plate reader. A 4-parameter regression analysis was performed with GraphPad Prism (manufactured by GraphPad Software) from a plot of the fluorescence intensity at 505 nm and the sample concentration, and an IC50 value was calculated.
Results of test compounds of Formula (I) are shown in Table 1 as IC50 (nM) values for which 50% inhibition concentration is calculated based on CTSC inhibition (%). In the table, Ex indicates an example number.

CTSC in U937 cells = CTSC in U937 cells (Homo sapiens (Human), UniProt P53634); experiment: Intracellular CTSC inhibition assay (in vitro), LLOMe-induced cell death in U937 cells; format: cell-based; details: 3 hours culture, CellTiter-Glo
CTSC in U937 cells, sequence (P53634 25-463): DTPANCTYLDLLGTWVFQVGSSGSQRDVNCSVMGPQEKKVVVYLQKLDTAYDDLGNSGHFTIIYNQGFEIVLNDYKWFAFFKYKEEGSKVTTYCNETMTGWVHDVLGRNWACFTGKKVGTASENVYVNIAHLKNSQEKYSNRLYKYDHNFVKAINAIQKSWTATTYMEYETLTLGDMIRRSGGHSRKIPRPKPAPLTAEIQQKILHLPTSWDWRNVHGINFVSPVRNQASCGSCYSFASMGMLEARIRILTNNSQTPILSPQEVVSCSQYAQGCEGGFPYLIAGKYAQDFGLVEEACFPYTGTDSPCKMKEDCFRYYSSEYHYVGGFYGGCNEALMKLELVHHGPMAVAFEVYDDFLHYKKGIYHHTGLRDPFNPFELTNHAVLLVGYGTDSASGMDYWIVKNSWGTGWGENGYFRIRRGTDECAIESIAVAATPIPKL
Experimental: 2. Intracellular CTSC Inhibition Assay (In Vitro)
A test specimen was evaluated by a degree of cell death in a case where a substrate LLOMe (L-Leucyl-L-Leucine methyl ester, hydrobromide salt, Sigma, 555045152) was added to U937 cells. The LLOMe is taken up into the cells by endocytosis and cleaved by CTSC. A product thereof induces lysosomal damage in cells and causes cell death in leukocytes and the like. Therefore, since the degree of cell death correlates with an amount of degradation of LLOMe, that is, with CTSC activity, by quantitatively analyzing the cell death, CTSC inhibitory activity of the test specimen in the cell was determined. CTSC inhibition assay was performed using a polystyrene-made white 384 well plate.
As the test specimen, a stock solution dissolved in DMSO was prepared so as to be 0.2 mmol/L, and in a case where a solution in which the stock solution was diluted 50-fold with a RPMI-1640 medium including 10% FBS was used as the maximum evaluation concentration (4000 nmol/L), a serially diluted solution was prepared by diluting the solution 3-fold with the medium. Thereafter, a 4-fold concentrated test specimen solution with the target final concentration was prepared.
U937 cells were cultured in a RPMI-1640 medium including 10% FBS, and diluted to prepare 90,000 cells/mL of cell suspension on the day of assay. 10 μL of the cell suspension was seeded per well. Next, 10 μL of the test specimen solution having a concentration 4 times the target final concentration was added thereto, and the mixture was allowed to stand for 30 minutes. Thereafter, 20 μL of a 300 μmol/L LLOMe solution dissolved in a RPMI-1640 medium including 10% FBS was added thereto, and the cells were cultured for 3 hours. After completion of the culture, 40 μL of CellTiter-Glo (registered trademark) reagent (Promega, G7570) was added to each well and mixed. After 15 minutes, 20 μL of the reaction solution in each well was transferred to a white 384 well plate, and a chemiluminescence intensity was measured with a plate reader. A 4-parameter regression analysis was performed with GraphPad Prism (manufactured by GraphPad Software) from a plot of the luminescence intensity and the sample concentration, and an IC50 value was calculated.
Results of test compounds of Formula (1) are shown in Table 2 as IC50 (nM) values for which 50% inhibition concentration is calculated based on CTSC inhibition (%). In the table, Ex indicates an example number.

human recombinant CTSC, sequence (P53634 25-134): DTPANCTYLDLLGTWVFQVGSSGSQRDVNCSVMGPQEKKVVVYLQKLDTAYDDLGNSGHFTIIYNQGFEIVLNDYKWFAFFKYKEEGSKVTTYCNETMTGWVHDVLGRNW
human recombinant CTSC, sequence (P53634 231-394): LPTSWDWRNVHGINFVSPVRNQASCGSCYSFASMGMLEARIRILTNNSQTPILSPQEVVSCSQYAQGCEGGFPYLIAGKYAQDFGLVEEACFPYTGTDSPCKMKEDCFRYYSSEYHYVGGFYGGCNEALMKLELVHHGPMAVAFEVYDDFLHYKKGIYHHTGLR
human recombinant CTSC, sequence (P53634 395-463): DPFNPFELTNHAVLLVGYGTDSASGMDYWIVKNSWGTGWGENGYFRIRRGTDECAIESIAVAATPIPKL

Row | IC50 (human recombinant CTSC) [nM] | SMILES | IC50 (CTSC in U937 cells) [nM]
1 | 88.8 | CC(C)C1(c2noc(C3CCC(F)(F)CC3)n2)CCN(C(=O)[C@H]2NC3CCC2CC3)CC1 [Example 23] | 60.9
2 | 3.02 | O=C([C@@H]1C[C@@H](O)C2(CCC2)CN1)N1CCC(c2nnn(-c3ccc(F)cc3)n2)(C(F)(F)F)CC1 [Example 95] | 0.2
3 | 2.41 | CC1(C)CN[C@H](C(=O)N2CCC(c3nnn(-c4ccc(F)c(F)c4)n3)CC2)C[C@H]1O [Example 103] | 0.5
4 | 1.79 | O=C([C@@H]1C[C@@H](O)C2(CCC2)CN1)N1CCC(c2nnn(C3CCC(F)(F)CC3)n2)CC1 [Example 97] | 3.26
5 | 1.7 | O=C([C@@H]1C[C@@H](O)C2(CCC2)CN1)N1CCC(c2nc(C3CCC(F)(F)CC3)no2)(C(F)(F)F)CC1 [Example 13] | 0.19
6 | 7.73 | O=C([C@@H]1CC[C@@]2(CCO2)CN1)N1CCC(c2nc(C3CCC(F)(F)CC3)no2)(C(F)(F)F)CC1 [Example 11] | 11.5
7 | 7.19 | CC(C)C1(c2noc(C3CCC(F)(F)CC3)n2)CCN(C(=O)C2CCC3(CCC3)CN2)CC1 (stereo not shown) [Example 42] | 2.28
8 | 3.92 | O=C([C@@H]1C[C@@H](O)C2(CCC2)CN1)N1CCC(c2cnn(-c3ccc(F)cc3)c2)CC1 [Example 93] | 0.77
9 | 4.85 | O=C([C@@H]1CC[C@@]2(CCO2)CN1)N1CCC(c2nc(C3CCC(F)(F)CC3)cs2)(C(F)(F)F)CC1 [Example 4] | 5.64
10 | 18.5 | CC(C)C1(c2noc(C3CCC(F)(F)CC3)n2)CCN(C(=O)C2CCC(C)(C)CN2)CC1 (stereo not shown) [Example 41] | 6.95
11 | 1.85 | O=C([C@@H]1C[C@@H](O)C2(CCC2)CN1)N1CCC(c2noc(C3CCC(F)(F)CO3)n2)(C(F)(F)F)CC1 (stereo partly drawn) [Example 63, (4-(5-(5,5-Difluorotetrahydro-2H-pyran-2-yl)-1,2,4-oxadiazol-3-yl)-4-(trifluoromethyl)piperidin-1-yl)((7S,9R)-9-hydroxy-6-azaspiro[3.5]nonan-7-yl)methanone] | 1.01
12 | 2.53 | O=C([C@@H]1C[C@@H](O)C2(CCC2)CN1)N1CCC(n2nnc(-c3ccc(F)cn3)n2)CC1 [Example 105] | 3.97
13 | 4.15 | O=C([C@@H]1C[C@@H](O)C2(CCC2)CN1)N1CCC(c2nc(C3CC(F)(F)C3)no2)(N2CCOCC2)CC1 [Example 65] | 30.1
14 | 1.93 | O=C([C@@H]1C[C@@H](O)C2(CCC2)CN1)N1CCC(c2nccc(-c3ccc(F)cc3)n2)CC1 [Example 101] | 0.96
15 | 1.46 | O=C([C@@H]1C[C@@H](O)C2(CCC2)CN1)N1CCC(n2nnc(-c3ccc(F)cc3F)n2)CC1 [Example 104] | 0.61
16 | 1.63 | O=C([C@@H]1C[C@@H](O)C2(CCC2)CN1)N1CCC(c2noc(C3CC(F)(F)C3)n2)(c2cccs2)CC1 [Example 70] | 1.1

Row | IC50 (human recombinant CTSC) [nM] | SMILES | IC50 (CTSC in U937 cells) [nM]
17 | 1.53 | O=C([C@@H]1C[C@@H](O)C2(CCC2)CN1)N1CCC(c2noc(C3CCC(F)(F)CO3)n2)(C(F)(F)F)CC1 (stereo partly drawn) [Example 50, (4-(5-(5,5-difluorotetrahydro-2H-pyran-2-yl)-1,2,4-oxadiazol-3-yl)-4-(trifluoromethyl)piperidin-1-yl)((7S,9R)-9-hydroxy-6-azaspiro[3.5]nonan-7-yl)methanone] | 0.8
18 | 1.47 | Cc1ccc(C2(c3nc(C4CC(F)(F)C4)no3)CCN(C(=O)[C@@H]3C[C@@H](O)C4(CCC4)CN3)CC2)cc1 [Example 83] | 0.23
19 | 8.28 | CC1(C)CN[C@H](C(=O)N2CCC(c3noc(C4CC(F)(F)C4)n3)(C(F)(F)F)CC2)C[C@H]1O [Example 51, (4-(5-(3,3-Difluorocyclobutyl)-1,2,4-oxadiazol-3-yl)-4-(trifluoromethyl)piperidin-1-yl)((2S,4R)-4-hydroxy-5,5-dimethylpiperidin-2-yl)methanone] | 0.86
20 | > 1000 | CC(C)C1(c2noc(C3CCC(F)(F)CC3)n2)CCN(C(=O)[C@@H]2C[C@H](S(C)(=O)=O)CN2)CC1 [Example 30] | > 1000
21 | 0.69 | O=C([C@@H]1C[C@@H](O)C2(CCC2)CN1)N1CCC(c2noc(C3CCC(F)(F)CO3)n2)(C(F)(F)F)CC1 (stereo partly drawn) [Example 64, (4-(5-(5,5-Difluorotetrahydro-2H-pyran-2-yl)-1,2,4-oxadiazol-3-yl)-4-(trifluoromethyl)piperidin-1-yl)((7S,9R)-9-hydroxy-6-azaspiro[3.5]nonan-7-yl)methanone] | 0.74
22 | 28.4 | O=C([C@@H]1C[C@@H](O)C2(CCC2)CN1)N1CCC(C(=O)N2CCO[C@@H](C(F)(F)F)C2)(C(F)(F)F)CC1 [Example 37] | 10.1
23 | 3.88 | CC(C)C1(c2nc(C3CC(F)(F)C3)no2)CCN(C(=O)[C@@H]2C[C@@H](O)C(C)(C)CN2)CC1 [Example 54] | 1.46
24 | 1.31 | O=C([C@@H]1C[C@@H](O)C2(CCC2)CN1)N1CCC(c2cn(C3CCC(F)(F)CC3)nn2)(C(F)(F)F)CC1 [Example 81] | 13.7
25 | 19.6 | O=C([C@@H]1CC[C@@]2(CCO2)CN1)N1CCC(c2noc(C3CC(F)(F)C3)n2)(C(F)(F)F)CC1 [Example 40] | 37.9
26 | 1.6 | CN(CC1CCC(F)(F)CC1)C(=O)C1(C(F)(F)F)CCN(C(=O)[C@@H]2C[C@@H](O)C3(CCC3)CN2)CC1 [Example 8] | 1.62
27 | 1.23 | CC(C)C1(c2nc(C3CCC(F)(F)CC3)no2)CN(C(=O)[C@@H]2C[C@@H](O)C3(CCC3)CN2)C1 [Example 19] | 0.98
28 | 1.03 | CC(C)C1(c2nc(C3CCC(F)(F)CC3)no2)CCN(C(=O)[C@@H]2C[C@@H](O)C3(CCC3)CN2)CC1 [Example 12] | 0.34
29 | 2.74 | O=C([C@@H]1C[C@@H](O)C2(CCC2)CN1)N1CCC(c2ccc(F)cn2)(c2noc(C3CC(F)(F)C3)n2)CC1 [Example 44] | 4.24
30 | 4.15 | O=C([C@@H]1C[C@@H](O)C2(CCC2)CN1)N1CCC(c2nccc(-n3cc(F)cn3)n2)CC1 [Example 99] | 1.12
31 | 5.4 | COc1cccc(-n2nnc(C3CCN(C(=O)[C@@H]4C[C@@H](O)C5(CCC5)CN4)CC3)n2)c1 [Example 100] | 3.48
32 | 25.5 | O=C([C@@H]1C[C@@H](O)C2(CCC2)CN1)N1CCC(C(=O)N2CCOC3(CC3)C2)(C(F)(F)F)CC1 [Example 32] | 8.84
